Laboratory results from paper PMC11360180, “Enhancement of Antimicrobial Function by L/D-Lysine Substitution on a Novel Broad-Spectrum Antimicrobial Peptide, Phylloseptin-TO2: A Structure-Related Activity Research Study” (Pharmaceutics, 2024).
Where a SMILES comes first, the peptide text is derived from it. Where no end group is shown, it is not given here. [ ]: non-standard residue; d: D form.

How the values were obtained:
[1] = system: K. pneumonia (ATCC 43816); type: cell-based, Klebsiella pneumonia; settings: ATCC 43816, 24 h
Description: (§1) Seven microorganism strains were used to preliminarily evaluate the antimicrobial activity of PSTO2 and its analogues, including Staphylococcus aureus (S. aureus) (ATCC® 6538), methicillin-resistant Staphylococcus aureus (MRSA) (NCTC® 12493), Enterococcus faecalis (E. faecalis) (NCTC® 12697), E. coli (ATCC® 8739), Klebsiella pneumonia (K. pneumonia) (ATCC® 43816), Pseudomonas aeruginosa (P. aeruginosa) (ATCC® CRM 9027), Acinetobacter baumanni (A. baumanni) (BAA® 747), and Candida albicans (C. albicans) (ATCC® 10231). In this study, the strains were cultured in Mueller–Hinton broth (MHB), nutrient broth (NB), and yeast–peptone–dextrose broth (YPD-B) correspondingly at 37 °C, with shaking at 120 rpm. Each peptide was dissolved from 128 μM to 1 μM and mixed with the bacterium at 5 × 10^5 CFU/mL. In this process, bacteria with culture medium were used as the growth control group; PBS was set up as the vehicle control group; sterile culture medium was used as the blank control group; and Norfloxacin at a concentration of 2 mg/mL and amphotericin B at a concentration of 1 mg/mL were set up as the positive control group for bacteria and fungi, respectively.
(§2) After being incubated for 24 h, a Synergy HT plate reader (Bio-Tek, Shoreline, WA, USA) was used to detect the absorbance of each well in the 96-well plate at λ = 550 nm. The concentration at which no visible turbidity could be recorded was the MIC value. Beginning from the MIC value, 10 µL of solution in each clear well was dropped on the sterile agar plates. The plate was checked the next day for colony formation, and the lowest concentration at which no colony growing was recorded as an MBC value.

[2] = system: S. aureus (ATCC 6538); type: cell-based, Staphylococcus aureus; settings: ATCC 6538, 24 h
Description: as §1, with “In this process, bacteria with culture medium were used as the growth control group; PBS was set up as the vehicle control group; sterile culture medium was used as the blank control group; and Norfloxacin at a concentration of 2 mg/mL and amphotericin B at a concentration of 1 mg/mL were set up as the positive control group for bacteria and fungi, respectively.” left out
as §2, with “value. […]” for “value. Beginning from the MIC value, 10 µL of solution in each clear well was dropped on the sterile agar plates.”, “value. […]” for “value.”

Compound | MBC [1] [µM] | MIC [1] [µM] | MBC [2] [µM] | MIC [2] [µM]
CC[C@H](C)[C@H](NC(=O)[C@H](C)NC(=O)[C@@H](CCCCN)NC(=O)[C@@H]1CCCN1C(=O)[C@@H](NC(=O)[C@H](CC(C)C)NC(=O)[C@H](CO)NC(=O)[C@H](CC(C)C)NC(=O)[C@@H](N)Cc1ccccc1)[C@@H](C)CC)C(=O)N[C@@H](CCCCN)C(=O)N[C@@H](C)C(=O)N[C@H](C(=O)N[C@@H](CCCCN)C(=O)N[C@@H](C)C(=O)N[C@@H](CC(C)C)C(=O)N[C@@H](C)C(=O)N[C@@H](CCCCN)C(=O)N[C@H](CCCCN)C(=O)N[C@@H](CC(C)C)C(N)=O)C(C)C [SR2D10] (H-FLSLIP[dK]AIKAVKALAK[dK]L-NH2) | 4 | 4 | – | –
FLSLIPKAIKAVKALAKKL-NH2 [SR2] | 2 | 2 | 2 | 2
FLSLIPKAIKAVSALAKKL-NH2 [SR] | 2 | 2 | – | –
